“Also recorded” adds a separate entry of the source.
Columns and labels:
NCX2 = target: T1, NCX2 (Rattus norvegicus, UniProt P48768); experiment: 45Ca2+ radiotracer fluxes (efflux/influx) in BHK-NCX2 cells; assay type: cell-based
T1 construct: expressed in transfected cells
Method: (§1) The activity of NCX was established by means of three different subclones of baby hamsted kidney (BHK) cells that were stably transfected with one of each NCX isoforms, named BHK-NCX1, BHK-NCX2 and BHK-NCX3. These cell lines were grown on plastic dishes in a mix of DMEM and Ham's F12 media (1:1) (Gibco, Invitrogen, MI, Italy) supplemented with 5% fetal bovine serum, 100 U/ml penicillin, and 100 µg/ml streptomycin (Sigma, St. Louis, Missouri, USA). Cells were cultured in a humidified 5% CO2 atmosphere and at the temperature of 37°C.
(§2) The activity of the Na^+/Ca^2+ exchanger was measured by means of ^45Ca^2+ radiotracer variations in the cytoplasm of cells exposed to a protocol stimulating the forward or the reverse mode of the antiporter. The BHK cells expressing each mutated or non-mutated NCX isoform were cultured in 12-well dishes and incubated in 145 mM NaCl for 10 minutes and then in a medium containing only 145 mM N-Methyl D-glucamine (NMDG) and 10 µM of ^45Ca^2+. This rapid substitution of the medium from a high level of Na^+ to another one without Na^+ allow the ^45Ca^2+ influx (reverse mode). Before the medium substitution cells was incubated with 1 mM ouabain, a Na^+/K^+ pump inhibitor, and 10 µM monensin, a ionophore for extracellular Na^+. After 30 seconds incubation, cells were washed with an ice-cold solution containing 2 mM La^3+ to stop ^45Ca^2+ uptake. The medium was removed and cells were subsequently lysed with 0.1 N NaOH and aliquots were taken to determine radioactivity and protein content.
(§3) In order to measure NCX activity in the forward mode, cells were firstly loaded with ^45Ca^2+ and subsequently exposed to a chemical protocol to stimulate the efflux of the radiotracer in the extracellular medium. In particular, cells were loaded with ^45Ca^2+ by using a solution containing 1 µM ionomycin, 145 mM Na^+ and ^45Ca^2+. Next, cells were exposed to a Ca^2+-free solution containing 2 mM EGTA. One µM thapsigargin, a Ca^2+-ATPase inhibitor, was present in both solutions in order to prevent ^45Ca^2+ influx in intracellular organelles. After 60 second, cells were lysed with […] NaOH and aliquots were taken to determine cytoplasmatic radioactivity.
Cells were incubated for 30 minutes with different neurounina-1 concentrations.

NCX1 L808F = target: T2, NCX1 L808F (Canis lupus familiaris, UniProt P23685, L840F); experiment: NCX1 point mutant activity (45Ca2+ uptake and Fura-2); assay type: cell-based; details: single mutation, functional exchanger
T2 construct: expressed in transfected cells
T2 sequence (P23685 33-970 L840F): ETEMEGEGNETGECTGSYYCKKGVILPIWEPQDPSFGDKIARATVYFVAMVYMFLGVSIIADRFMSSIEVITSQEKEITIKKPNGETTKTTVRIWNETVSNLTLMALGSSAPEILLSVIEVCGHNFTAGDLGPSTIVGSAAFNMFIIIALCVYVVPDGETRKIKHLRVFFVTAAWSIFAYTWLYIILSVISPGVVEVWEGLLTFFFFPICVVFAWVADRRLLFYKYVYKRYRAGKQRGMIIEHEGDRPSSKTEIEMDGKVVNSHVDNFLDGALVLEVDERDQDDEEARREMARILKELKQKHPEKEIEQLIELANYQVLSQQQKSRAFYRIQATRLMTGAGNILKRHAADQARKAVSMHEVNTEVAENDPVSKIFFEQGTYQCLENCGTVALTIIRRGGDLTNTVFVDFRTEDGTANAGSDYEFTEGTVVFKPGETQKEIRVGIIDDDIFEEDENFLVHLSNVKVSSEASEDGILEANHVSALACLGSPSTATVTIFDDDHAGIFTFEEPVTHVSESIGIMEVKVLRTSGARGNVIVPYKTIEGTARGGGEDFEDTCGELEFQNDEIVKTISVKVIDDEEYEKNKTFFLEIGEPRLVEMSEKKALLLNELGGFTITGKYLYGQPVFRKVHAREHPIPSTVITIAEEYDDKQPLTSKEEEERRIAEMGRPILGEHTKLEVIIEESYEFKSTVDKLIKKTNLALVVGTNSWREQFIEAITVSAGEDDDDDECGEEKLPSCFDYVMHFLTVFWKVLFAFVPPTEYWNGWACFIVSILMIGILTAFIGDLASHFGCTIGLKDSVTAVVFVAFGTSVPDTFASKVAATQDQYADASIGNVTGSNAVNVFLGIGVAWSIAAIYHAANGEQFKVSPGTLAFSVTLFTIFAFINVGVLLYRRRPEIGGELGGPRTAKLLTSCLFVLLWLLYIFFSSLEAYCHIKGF
Method: (§4) To identify the critical residues involved in drug sensitivity between NCX1 and NCX3 proteins, each residue in NCX1, in the regions α1 and α2, was substituted with the corresponding residue in NCX3.
(§5) All experiments aimed to identify the binding site of neurounina-1 were performed on BHK cells stably transfected with a single NCX chimera or mutant.
as §2, with “After 30 seconds incubation, cells were washed with an ice-cold solution containing 2 mM La^3+ to stop ^45Ca^2+ uptake.” left out
(§6) Briefly, BHK cells wild type and/or BHK trasnsfected with NCX mutants, grown on glass coverslips, were loaded with Fura-2 acetoxymethyl ester (Fura-2AM) (10 µM) for 30 minutes at 37°C in normal Krebs solution containing the following (in mM): 5.5 KCI, 160 NaCl, 1.2 MgCl2, 1.5 CaCl2, 10 glucose, and 10 Hepes-NaOH, pH 7.4. […] Fura-2 fluorescence intensity was measured every 3 seconds. […] NCX activity was evaluated as Ca2+ uptake through the reverse mode by switching the normal Krebs medium containing thapsigargi (1µM) to Na^+-deficient NMDG+ medium (Na^+-free) containing (in mM): 5.5 KCI, 147 N-Methyl glucamine, 1.2 MgCl2, 1.5 CaCl2, 10 glucose, and 10 Hepes-NaOH (pH 7.4). All the results are presented as percentage of cytosolic Ca^2+ concentration increase above basal values and expressed as mean± S.E.M.

NCX1 N124G = target: T3, NCX1 N124G (Canis lupus familiaris, UniProt P23685, N157G); experiment: as above; assay type: cell-based; details: single mutation, functional exchanger
T3 construct: expressed in transfected cells
T3 sequence (P23685 33-970 N157G): as the sequence (P23685 33-970 L840F) above, with N125G, F808L counted along it
Method: as §4, §5
as §2, with “After 30 seconds incubation, cells were washed with an ice-cold solution containing 2 mM La^3+ to stop ^45Ca^2+ uptake.” left out
as §6

NCX1 V117L = target: T4, NCX1 V117L (Canis lupus familiaris, UniProt P23685, V150L); experiment: as above; assay type: cell-based; details: single mutation, functional exchanger
T4 construct: expressed in transfected cells
T4 sequence (P23685 33-970 V150L): as the sequence (P23685 33-970 L840F) above, with V118L, F808L counted along it
Method: as §4, §5
as §2, with “After 30 seconds incubation, cells were washed with an ice-cold solution containing 2 mM La^3+ to stop ^45Ca^2+ uptake.” left out
as §6

NCX3 = target: T5, NCX3 (Rattus norvegicus, UniProt P70549); experiment: 45Ca2+ radiotracer fluxes (efflux/influx) in BHK-NCX3 cells; assay type: cell-based
T5 construct: expressed in transfected cells
T5 sequence (P70549 31-927): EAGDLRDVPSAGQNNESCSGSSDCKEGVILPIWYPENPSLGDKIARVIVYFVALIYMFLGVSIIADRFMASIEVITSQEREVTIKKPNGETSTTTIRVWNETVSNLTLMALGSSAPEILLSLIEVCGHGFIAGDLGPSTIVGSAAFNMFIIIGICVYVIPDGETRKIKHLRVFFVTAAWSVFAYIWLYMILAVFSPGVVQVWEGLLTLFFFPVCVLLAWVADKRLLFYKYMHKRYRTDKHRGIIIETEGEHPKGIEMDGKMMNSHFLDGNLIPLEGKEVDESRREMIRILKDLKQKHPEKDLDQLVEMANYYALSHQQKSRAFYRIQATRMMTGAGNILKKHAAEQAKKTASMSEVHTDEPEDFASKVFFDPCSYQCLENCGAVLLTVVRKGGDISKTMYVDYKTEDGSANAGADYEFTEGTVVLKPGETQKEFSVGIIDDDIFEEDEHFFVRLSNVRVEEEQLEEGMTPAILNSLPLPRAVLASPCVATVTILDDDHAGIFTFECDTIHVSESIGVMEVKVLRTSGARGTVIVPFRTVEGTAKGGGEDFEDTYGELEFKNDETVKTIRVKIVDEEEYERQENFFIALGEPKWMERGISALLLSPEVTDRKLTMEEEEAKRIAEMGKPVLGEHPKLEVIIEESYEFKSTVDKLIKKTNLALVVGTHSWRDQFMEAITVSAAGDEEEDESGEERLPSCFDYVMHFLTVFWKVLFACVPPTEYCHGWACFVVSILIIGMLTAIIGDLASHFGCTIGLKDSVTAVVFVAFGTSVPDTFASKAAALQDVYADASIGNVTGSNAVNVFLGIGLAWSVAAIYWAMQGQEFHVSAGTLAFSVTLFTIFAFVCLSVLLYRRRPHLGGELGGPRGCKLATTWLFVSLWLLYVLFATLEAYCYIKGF
Method: as §1, §2
as §3, with “One µM thapsigargin, a Ca^2+-ATPase inhibitor, was present in both solutions in order to prevent ^45Ca^2+ influx in intracellular organelles.” left out, “radioactivity. […]” for “radioactivity.”

BHK cells = experiment: Cell viability by fluorescein diacetate / propidium iodide staining; assay type: cell-based, hamster; details: 10 µM, 24 hours
From the text: Fluorescein diacetate (FDA) is an apolar ester that could cross plasmamembrane. […] The polar compound propidium-iodide (PI) can not cross an intact plasmamembrane, so this is a good marker of necrotic cells. Once PI enters into the cell, this compound interact with nuclear DNA and give a fluorescent red light. Consequently, in the same cellular population, it is possible to discriminate live cells from dead cells, because the last group are PI-positive. In PI/PDA experiments, BHK cells were firstly treated with 10 µM neurounina-1 for 24 hours and then incubated for 3 minutes, at 22°C, in a PBS solution containing fluorescein diacetate (FDA; Sigma) and propidium iodide (PI, Calbiochem, San Diego, CA, U.S.A.), at the concentrations of di 36 µM e 7 µM, respectively. At the end of the incubation, cells were washed with PBS and observed at the microscope.

[1] = 45Ca2+ radiotracer, forward mode
[2] = 45Ca2+ radiotracer, reverse mode
[3] = forward and reverse mode, patch clamp, Fura-2 microfluorimetry and 45Ca2+ fluxes (summary)

T1 sequence (P48768 21-921): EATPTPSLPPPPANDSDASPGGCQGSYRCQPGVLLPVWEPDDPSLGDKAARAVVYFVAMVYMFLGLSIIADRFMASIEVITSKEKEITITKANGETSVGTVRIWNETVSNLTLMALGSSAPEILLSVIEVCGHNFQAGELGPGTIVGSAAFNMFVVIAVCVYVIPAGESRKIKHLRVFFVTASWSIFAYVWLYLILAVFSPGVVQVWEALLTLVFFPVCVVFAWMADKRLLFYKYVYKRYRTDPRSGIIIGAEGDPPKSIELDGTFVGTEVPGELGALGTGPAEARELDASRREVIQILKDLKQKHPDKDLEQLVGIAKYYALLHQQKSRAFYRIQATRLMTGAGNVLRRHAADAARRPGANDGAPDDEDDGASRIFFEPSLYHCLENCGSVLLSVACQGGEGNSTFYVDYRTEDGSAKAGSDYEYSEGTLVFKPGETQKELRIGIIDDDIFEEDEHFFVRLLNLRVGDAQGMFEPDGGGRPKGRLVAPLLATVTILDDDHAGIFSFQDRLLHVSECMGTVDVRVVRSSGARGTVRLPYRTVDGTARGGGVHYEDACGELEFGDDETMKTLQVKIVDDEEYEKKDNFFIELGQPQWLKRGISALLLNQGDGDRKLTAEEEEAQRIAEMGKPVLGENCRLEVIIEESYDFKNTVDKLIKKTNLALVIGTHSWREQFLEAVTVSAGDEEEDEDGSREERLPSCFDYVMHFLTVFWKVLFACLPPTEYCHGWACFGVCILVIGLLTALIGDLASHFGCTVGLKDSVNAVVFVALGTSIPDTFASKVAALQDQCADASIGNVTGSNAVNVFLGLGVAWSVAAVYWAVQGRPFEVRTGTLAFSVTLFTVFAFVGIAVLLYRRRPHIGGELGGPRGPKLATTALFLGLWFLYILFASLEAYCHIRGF

O=C1CN=C(c2ccccc2)c2cc([N+](=O)[O-])ccc2N1CN1CCCC1 [neurounina-1, 7-nitro-5-phenyl-1-(pyrrolidin-1-ylmethyl)-1H-benzo[e][1,4]diazepin-2(3H)-one]
increase of forward mode of NCX2 activity (NCX2; [1]): 30%
increase of reverse mode NCX2 activity (NCX2; [2]): 40%
EC50 (NCX2; EC50 NCX2, reverse mode, 45Ca2+ radiotracer, reverse mode): 2.7 nM
EC50 (NCX2; EC50 for NCX2, forward mode, 45Ca2+ radiotracer, forward mode): 1.7 nM
EC50 (NCX2; EC50 su NCX2, from the functional assays (summary)): 1 to 2 nM
NCX2 activity (NCX2; [3]): increases, in a dose-dependent manner
sensitivity of NCX1 mutant L808F (NCX1 L808F): insensible
sensitivity of NCX1 mutant N124G (NCX1 N124G): insensible
sensitivity of NCX1 mutant V117L (NCX1 V117L): insensible
activity of NCX3, forward mode (NCX3; [1]): did not significantly affect
activity of NCX3, reverse mode (NCX3; [2]): did not affect
NCX3 activity (NCX3; [3]): did not exert any effect
cell viability (BHK cells): did not show any toxic effect; also recorded: did not affect

From EP2646421B1, “7-NITRO-5-PHENYL-1-(PYRROLIDIN-1-YLMETHYL)-1H-BENZO[E][1,4]DIAZEPIN-2(3H)-ONE AND OTHER BENZODIAZEPINE DERIVATIVES” (Pignataro, Giuseppe, priority 2010, dated 2012)
